Active and inactive are the calls of the source. No rule for the calls is given here.
The compounds below were run against Induced myeloid leukemia cell differentiation protein Mcl-1 (Homo sapiens) (UniProt Q07820) (assay: Mcl-1/Bim interaction regulators – biochemical, bead-based flow cytometry, multiplexed, human, dose response (AID 1329)). Conditions: Bim peptide-Mcl-1 binding, MCF.
Sequence of Induced myeloid leukemia cell differentiation protein Mcl-1 (Homo sapiens) (Q07820 whole entry, looked up): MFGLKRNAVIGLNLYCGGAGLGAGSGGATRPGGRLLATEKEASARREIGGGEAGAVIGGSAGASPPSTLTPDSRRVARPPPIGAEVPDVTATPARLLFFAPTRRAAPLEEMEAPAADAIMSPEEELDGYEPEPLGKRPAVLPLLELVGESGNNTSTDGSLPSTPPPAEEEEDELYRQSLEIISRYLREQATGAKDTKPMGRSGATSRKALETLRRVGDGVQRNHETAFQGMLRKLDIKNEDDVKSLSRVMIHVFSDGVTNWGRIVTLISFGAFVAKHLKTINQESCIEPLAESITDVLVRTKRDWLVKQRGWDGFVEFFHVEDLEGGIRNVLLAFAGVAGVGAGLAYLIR

Percent span, inactive:
Cc1ccc(-c2cc(C(=O)Nc3cccnc3)c3ccccc3n2)o1
CCOC(=O)/C(=C\c1ccc(Cl)cc1)c1nc2sc(C)c(C)c2c(=O)[nH]1
CCOC(=O)c1c2c3c(cccc3[nH]c1=O)C(=O)c1ccccc1-2
COCCN=c1scc(-c2cccs2)n1/N=C/c1ccc(O)c(O)c1O
O=C(OCc1nc2ccccc2[nH]1)C12CC3CC(CC(C3)C1)C2
CNC(=S)N(Cc1cccs1)Cc1cc2ccc(OC)cc2[nH]c1=O
Cc1ccc2cc(C)c(Sc3nnnn3-c3ccccc3)nc2c1
Cc1ccc(-c2n[nH]c(=S)n2-c2ccccc2)cc1
O=c1nc2c(O)cccn2c2c1c(=O)[nH]c1ccccc12
O=[N+]([O-])c1ccc(-c2cn(-c3ccc(Cl)cc3)c(=S)[nH]2)cc1
COC(=O)CSc1nccc(-c2cccs2)n1
COc1ccc(-c2csc(NC(=O)/C(N=Nc3ccccc3)=C(\C)O)n2)cc1
CNc1ccc(Br)cc(C(=O)/C=C/c2ccc(OC)cc2OC)c1=O
COc1cc(/C=C2/NC(=O)N(Cc3ccccc3F)C2=O)ccc1O
Cc1ccc(/C=C/C(=O)c2ccccc(=O)c2O)c(C)c1
CC1CCN(C2(O)C(=O)Nc3ccc(Br)cc32)CC1 (stereo not drawn)
Cc1cc(-c2nn(-c3ccccc3)cc2/C=C2\SC(N)=NC2=O)ccc1OC(C)C
O=C(/C=C/c1c(F)cccc1Cl)Nc1ccncc1
CNCc1ccccc1Sc1cc(O)ccc1O
COc1ccc(N2CC(C(=O)Nc3nnc(SCC(=O)c4ccccc4)s3)CC2=O)cc1 (stereo not drawn)
CC(=O)Nc1ccc(-n2cc(-c3ccccc3)[nH]c2=S)cc1
COc1ccc(C(=O)NC(=S)N2CCNC(=O)C2)cc1Br
Cc1cc(OCc2cn3cccnc3n2)ccc1Cl
O=C(Nc1ccc2nc(-c3ccco3)c(-c3ccco3)nc2c1)N1CCCCCC1
Cc1cc(C)nc(/N=c2/ssnc2Cl)c1
CCc1ccc(NC(=O)Cc2ccc(OC)cc2)cc1
Cc1cc(-c2csc(N)n2)c(C)n1CCC(C)C
Clc1nssc1=Nc1ccc(Br)cc1
Cc1noc(C)c1COc1ccc(C(=O)Nc2cccnc2)cc1
CCOC(=O)CSC1=NC(=O)/C(=C/c2ccc(OC)cc2)S1
Cc1cccc(N2C(S)=C(C#N)C(=O)NC2c2cccs2)c1 (stereo not drawn)
Clc1ccc2c(N/N=C/c3ccccc3Br)ccnc2c1
COc1ccc(C(=O)Nc2ccc(C(=O)OCC(=O)c3cccc4ccccc34)cc2)cc1
